Laboratory results taken from patent EP4755888A1 (ILAb Co., Ltd., priority 2023, dated 2025).

Target: PD-1/PD-L1 (Homo sapiens, UniProt Q9NZQ7)
Experiment: TR-FRET PD-1/PD-L1 binding inhibition at the molecular level (free proteins)
Details: Tag1-PD-L1 and Tag2-PD-1 proteins, twelve concentrations from 200 nM, 2 hours at room temperature, read-out: FRET assay (IC50)
Method in brief: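 HTRF read-out at 665/620 nm after 2 h at room temperature. Detection used anti-Tag1 Eu cryptate plus anti-Tag2 XL665 antibodies. Tagged PD-L1 and PD-1 proteins were pre-mixed with compound across twelve […] 1:2 dilutions starting at 200 nM.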

PD-1/PD-L1, sequence (Q9NZQ7 19-238 limits assumed): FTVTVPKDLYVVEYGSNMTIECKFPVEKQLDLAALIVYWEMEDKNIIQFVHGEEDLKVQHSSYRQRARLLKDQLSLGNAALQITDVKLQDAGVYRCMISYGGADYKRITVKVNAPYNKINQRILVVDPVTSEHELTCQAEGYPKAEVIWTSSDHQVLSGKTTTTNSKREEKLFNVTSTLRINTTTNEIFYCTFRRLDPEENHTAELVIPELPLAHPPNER

Row | IC50 | Structure (SMILES)
1 | < 10 nM | CC(=O)NCCNC1CCCn2nc(C(=O)Nc3cccc(-c4cccc(NC(=O)c5nc6c(s5)CN(C)CC6)c4C)c3C)cc21 (stereo not shown) [Compound 148, N-(3'-(4-((2-acetamidoethyl)amino)-4,5,6,7-tetrahydropyrazolo[1,5-a]pyridine-2-carboxamido)-2,2'-dimethyl-[1,1'-biphenyl]-3-yl)-5-methyl-4,5,6,7-tetrahydrothiazolo[5,4-c]pyridine-2-carboxamide]
2 | < 10 nM | Cc1c(NC(=O)c2cc3n(n2)CCCC3NCC(=O)O)cccc1-c1cccc(NC(=O)c2nc3c(s2)CN(C)CC3)c1C (stereo not shown) [Compound 149, 2-((2-((2,2'-dimethyl-3'-(5-methyl-4,5,6,7-tetrahydrothiazolo[5,4-c]pyridine-2-carboxamido)-[1,1'-biphenyl]-3-yl)carbamoyl)-4,5,6,7-tetrahydropyrazolo[1,5-a]pyridin-4-yl)amino)acetic acid]
3 | < 10 nM | Cc1c(NC(=O)c2cc3n(n2)CCCC3N2CC[C@@H](O)C2)cccc1-c1cccc(NC(=O)c2nc3c(s2)CN(C)CC3)c1C (stereo partly drawn) [Compound 150, N-(3'-(4-((R)-3-hydroxypyrrolidin-1-yl)-4,5,6,7-tetrahydropyrazolo[1,5-a]pyridine-2-carboxamido)-2,2'-dimethyl-[1,1'-biphenyl]-3-yl)-5-methyl-4,5,6,7-tetrahydrothiazolo[5,4-c]pyridine-2-carboxamide]
4 | < 10 nM | O=C(Nc1cccc(-c2cccc(NC(=O)c3nc4c(s3)CN(CCF)CC4)c2Cl)c1Cl)c1cc2n(n1)CCCC2NCCO (stereo not shown) [Compound 150-1, N-(2,2'-dichloro-3'-(4-((2-hydroxyethyl)amino)-4,5,6,7-tetrahydropyrazolo[1,5-a]pyridine-2-carboxamido)-[1,1'-biphenyl]-3-yl)-5-(2-fluoroethyl)-4,5,6,7-tetrahydrothiazolo[5,4-c]pyridine-2-carboxamide]
5 | < 10 nM | O=C(O)CNC1CCCn2nc(C(=O)Nc3cccc(-c4cccc(NC(=O)c5nc6c(s5)CN(CCF)CC6)c4Cl)c3Cl)cc21 (stereo not shown) [Compound 150-2, 2-((2-((2,2'-dichloro-3'-(5-(2-fluoroethyl)-4,5,6,7-tetrahydrothiazolo[5,4-c]pyridine-2-carboxamido)-[1,1'-biphenyl]-3-yl)carbamoyl)-4,5,6,7-tetrahydropyrazolo[1,5-a]pyridin-4-yl)amino)acetic acid]
6 | 10 to 100 nM | CC(=O)NCCNC1CCCn2nc(C(=O)Nc3cccc(-c4cccc(-c5nc6c(s5)CCN(C)C6)c4C)c3C)cc21 (stereo not shown) [Compound 152, 4-((2-acetamidoethyl)amino)-N-(2,2'-dimethyl-3'-(5-methyl-4,5,6,7-tetrahydrothiazolo[4,5-c]pyridin-2-yl)-[1,1'-biphenyl]-3-yl)-4,5,6,7-tetrahydropyrazolo[1,5-a]pyridine-2-carboxamide]
7 | < 10 nM | Cc1c(NC(=O)c2cc3n(n2)CCCC3NCC(=O)O)cccc1-c1cccc(-c2nc3c(s2)CCN(C)C3)c1C (stereo not shown) [Compound 153, 2-((2-((2,2'-dimethyl-3'-(5-methyl-4,5,6,7-tetrahydrothiazolo[4,5-c]pyridin-2-yl)-[1,1'-biphenyl]-3-yl)carbamoyl)-4,5,6,7-tetrahydropyrazolo[1,5-a]pyridin-4-yl)amino)acetic acid]
8 | 10 to 100 nM | Cc1c(NC(=O)c2cc3n(n2)CCCC3N2CC[C@@H](O)C2)cccc1-c1cccc(-c2nc3c(s2)CCN(C)C3)c1C (stereo partly drawn) [Compound 154, N-(2,2'-dimethyl-3'-(5-methyl-4,5,6,7-tetrahydrothiazolo[4,5-c]pyridin-2-yl)-[1,1'-biphenyl]-3-yl)-4-((R)-3-hydroxypyrrolidin-1-yl)-4,5,6,7-tetrahydropyrazolo[1,5-a]pyridine-2-carboxamide]
9 | > 1000 nM | Cc1c(-c2cc3n(n2)CCCC3NCCO)cccc1-c1cccc(-c2cc3n(n2)CCCC3N2CC[C@@H](O)C2)c1C (stereo partly drawn) [Compound 157, (3R)-1-(2-(3'-(4-((2-hydroxyethyl)amino)-4,5,6,7-tetrahydropyrazolo[1,5-a]pyridin-2-yl)-2,2'-dimethyl-[1,1'-biphenyl]-3-yl)-4,5,6,7-tetrahydropyrazolo[1,5-a]pyridin-4-yl)pyrrolidin-3-ol]
10 | 10 to 100 nM | Cc1c(NC(=O)c2cc3n(n2)CCCC3NCCO)cccc1-c1cccc(-c2cc3n(n2)CCCC3NCCO)c1C (stereo not shown) [Compound 158, 4-((2-hydroxyethyl)amino)-N-(3'-(4-((2-hydroxyethyl)amino)-4,5,6,7-tetrahydropyrazolo[1,5-a]pyridin-2-yl)-2,2'-dimethyl-[1,1'-biphenyl]-3-yl)-4,5,6,7-tetrahydropyrazolo[1,5-a]pyridine-2-carboxamide]
11 | 10 to 100 nM | Cc1c(NC(=O)c2cc3n(n2)CCCC3NCCO)cccc1-c1cccc(-c2cc3n(n2)CCCC3N2CC[C@@H](O)C2)c1C (stereo partly drawn) [Compound 159, 4-((2-hydroxyethyl)amino)-N-(3'-(4-((R)-3-hydroxypyrrolidin-1-yl)-4,5,6,7-tetrahydropyrazolo[1,5-a]pyridin-2-yl)-2,2'-dimethyl-[1,1'-biphenyl]-3-yl)-4,5,6,7-tetrahydropyrazolo[1,5-a]pyridine-2-carboxamide]
12 | 10 to 100 nM | Cc1c(NC(=O)c2cc3n(n2)CCCC3N2CC[C@@H](O)C2)cccc1-c1cccc(-c2cc3n(n2)CCCC3NCCO)c1C (stereo partly drawn) [Compound 160, N-(3'-(4-((2-hydroxyethyl)amino)-4,5,6,7-tetrahydropyrazolo[1,5-a]pyridin-2-yl)-2,2'-dimethyl-[1,1'-biphenyl]-3-yl)-4-((R)-3-hydroxypyrrolidin-1-yl)-4,5,6,7-tetrahydropyrazolo[1,5-a]pyridine-2-carboxamide]
13 | 10 to 100 nM | Cc1c(NC(=O)c2cc3n(n2)CCCC3N2CC[C@@H](O)C2)cccc1-c1cccc(-c2cc3n(n2)CCCC3N2CC[C@@H](O)C2)c1C (stereo partly drawn) [Compound 161, 4-((R)-3-hydroxypyrrolidin-1-yl)-N-(3'-(4-((R)-3-hydroxypyrrolidin-1-yl)-4,5,6,7-tetrahydropyrazolo[1,5-a]pyridin-2-yl)-2,2'-dimethyl-[1,1'-biphenyl]-3-yl)-4,5,6,7-tetrahydropyrazolo[1,5-a]pyridine-2-carboxamide]
14 | 10 to 100 nM | COc1nc(-c2cccc(-c3cccc(-c4cc5n(n4)CCCC5NCCO)c3C)c2C)cnc1CNC[C@@H]1CCC(=O)N1 (stereo partly drawn) [Compound 162, (5S)-5-((((5-(3'-(4-((2-hydroxyethyl)amino)-4,5,6,7-tetrahydropyrazolo[1,5-a]pyridin-2-yl)-2,2'-dimethyl-[1,1'-biphenyl]-3-yl)-3-methoxypyrazin-2-yl)methyl)amino)methyl)pyrrolidin-2-one]
15 | 10 to 100 nM | COc1nc(-c2cccc(-c3cccc(-c4cc5n(n4)CCCC5NCC(=O)O)c3C)c2C)cnc1CNC[C@@H]1CCC(=O)N1 (stereo partly drawn) [Compound 163, 2-((2-(3'-(6-methoxy-5-(((((S)-5-oxopyrrolidin-2-yl)methyl)amino)methyl)pyrazin-2-yl)-2,2'-dimethyl-[1,1'-biphenyl]-3-yl)-4,5,6,7-tetrahydropyrazolo[1,5-a]pyridin-4-yl)amino)acetic acid]

Row | Structure (SMILES) | IC50
16 | Cc1c(-c2cc3n(n2)CCCC3N2CCC(O)C2)cccc1-c1cccc(-c2cc3n(n2)CCCC3N2CCC(O)C2)c1C [Compound 156, (3R,3'R)-1,1'-(2,2'-(2,2'-dimethyl-[1,1'-biphenyl]-3,3'-diyl)bis(4,5,6,7-tetrahydropyrazolo[1,5-a]pyridine-4,2-diyl))bis(pyrrolidin-3-ol)] | 100 to 1000 nM
